“Also recorded” adds a separate entry of the source.
What was measured:
pancreas = assay: Drug treatment of Gnptab−/− mice: pancreatic total cholesterol; type: in vivo, mouse
Method: 12-week-old Gnptab−/− mice were subjected to daily i.p. injections of 20 mg/kg simvastatin or the same dose of T0901317 for 4 or 21 days.
Total cholesterol content was measured with Cholesterol Assay kit per manufacturer's instructions. Samples of mouse pancreas and liver, cell pellet homogenates, subcellular fractions, isolated mitochondria, and serum were diluted in the reaction buffer containing cholesterol probe and incubated at 37° C. for 1 h in the dark. To measure total cholesterol, the samples were subjected to digestion with cholesterol esterase. To measure non-esterified cholesterol, the esterase was omitted from the assay.

CER/CCK-AP = assay: Effect of simvastatin and BemA in CER/CCK-AP (mouse and ex-vivo model)
Method: FIGS. 25A-25C show reducing cholesterol overload greatly ameliorates experimental pancreatitis. CER-AP responses were measured in (A) AclyAac or (C) WT mice treated with simvastatin or bempedoic acid (BemA). (B) Acinar cells were transfected with ACLA (or mock) siRNA and subjected to ex-vivo CCK-AP. Each symbol represents an individual mouse or cell preparation. Values are mean±SE. **p<0.01, ***p<0.001 vs saline treated control mice (or mock transfection); #p<0.05, ##p<0.01, ###p<0.001 vs CER/CCK-AP in control mice (i.e. without inhibitors) or cells.
FIGS. 26A-26D preventing cholesterol overload ameliorates ex-vivo pancreatitis. Mouse pancreatic acinar cells were incubated (A, B) with simvastatin (4 μM, 3 h) or (C, D) cholesterol chelator, methyl-β-cyclodextrin (MCD; 10 mM, 1 h) and then subjected to CCK-AP for 1 (D) or 3 h (A, B). Cholesterol content (A, C) necrosis (B), and trypsin activity (D) were measured. Each symbol represents an individual cell preparation. Values are mean±SEM*p<0/05, **p<0.01 vs control; #p<0.05 ##p<0.01; vs CCK, no inhibitor.
Cholesterol metabolism is disrupted in pancreatitis as a result of lysosomal/autophagy dysfunction. Preventing acinar cell cholesterol overload with simvastatin alleviates AP in one experimental model (CER-AP). As discussed above, lysosomal/autophagy dysfunction is associated with both experimental and human pancreatitis.^6, 7, 9, 13, 17 However, until a recent publication^13 there was very little known on cholesterol metabolism in healthy pancreas, its changes in experimental and human pancreatitis, and role in disease severity. Further, effects of statins and other cholesterol-lowering drugs in pancreas, and the underlying mechanisms, have not been explored. […] This, in turn, stimulates a compensatory increase in cholesterol synthesis, further exacerbating cholesterol overload. It was further shown^13 that inhibition of cholesterol synthesis with simvastatin reduced acinar cell cholesterol overload and the severity of pancreatitis induced with supramaximal cerulein (CER), an ortholog of the hormone cholecystokinin-8 (CCK). The findings^13 reveal a previously unrecognized pathogenic role of cholesterol dysregulation in pancreatitis and indicate normalizing cholesterol metabolism as a novel therapeutic approach for disease treatment.
In summary, the published^13 and current data (FIGS. 23-26) reveal that disruption of acinar cell cholesterol metabolism is a common feature in models of experimental pancreatitis and also prominent in human disease. The key manifestation of cholesterol dyshomeostasis in pancreatitis is acinar cell cholesterol overload. […]

With `CCC(C)(C)C(=O)O[C@H]1C[C@@H](C)C=C2C=C[C@H](C)[C@H](CC[C@@H]3C[C@@H](O)CC(=O)O3)[C@H]21` [simvastatin] the “total cholesterol content in pancreas, Gnptab−/− mice” value (pancreas; 20 mg/kg i.p. daily for 4 or 21 days) was “Neither treatment changed”, the “pancreatic total cholesterol, Gnptab−/− mice” value (pancreas; even for 3 weeks) was “failed to decrease” and the “cholesterol overload, CER/CCK-AP” value (CER/CCK-AP) was “reduced; also recorded: prevented”. The “disease severity, CER/CCK-AP” value (CER/CCK-AP) was “reduced”.
